Data set [1] is described as follows: Plasma AUC after single administration to a normal human subject. The data set is classed as in vivo. The settings on record: 200 mg singly administered, read-out: plasma AUC0-∞. As for the experimental part: (§1) Administration of clarithromycin was carried out orally at the rate of 25, 50 or 100 […] twice daily (morning and evening) during the tobacco smoke exposure period. The plasma AUC0-∞ of clarithromycin obtained when 50 mg/kg was singly administered to the mice was 2.677 μg·hr/ml while the plasma AUC0-∞ of clarithromycin obtained when 200 mg of clarithromycin was singly administered to a normal human subject was 8.98 μg·hr/ml. The former concentration was substantially lower than the latter one and was an adequate concentration to be used clinically.

The nature of data set [2]: Plasma AUC after single administration to mice. The data set is classed as in vivo. The conditions noted are these: C57black/6, mouse, oral, 50 mg/kg singly administered, read-out: plasma AUC0-∞. Here is the method:
as §1

The subject of data set [3] is model mice with tobacco smoke-induced pulmonary emphysema. Kind of data set: Pulmonary compliance in model mice with tobacco smoke-induced pulmonary emphysema. The data set is classed as in vivo, C57black/6 female mice. The conditions noted are these: after six months' exposure; FIG. 2. As for the experimental part:
(§2) The model mice with tobacco smoke-induced pulmonary emphysema mimicking human pulmonary emphysema were constructed according to the method as described in Hautamaki, R. D. et al., Science 1997, 277:2002-2004 or Shapiro, S. D. et al., Am. J. Pathol (2003) 163:2329-2335. Specifically, C57black/6 female mice of 12-weeks old were exposed to tobacco smoke at two cigarettes per day, 6 days per week for 6 months. Administration of clarithromycin was carried out orally at the rate of 25, 50 or 100 […] twice daily (morning and evening) during the tobacco smoke exposure period. The plasma AUC0-∞ of clarithromycin obtained when 50 mg/kg was singly administered to the mice was 2.677 μg·hr/ml while the plasma AUC0-∞ of clarithromycin obtained when 200 mg of clarithromycin was singly administered to a normal human subject was 8.98 μg·hr/ml. The former concentration was substantially lower than the latter one and was an adequate concentration to be used clinically. It has been reported that as pulmonary emphysema progresses, pulmonary functions deteriorate. It has also been known that the pulmonary compliance, which is an index of pulmonary functions, increases in model mice with tobacco smoke-induced pulmonary emphysema. Thus, the pulmonary compliance was measured in the model mice with tobacco smoke-induced pulmonary emphysema after six months' exposure.

Data set [4] relates to macrophages and neutrophiles in bronchoalveolar lavage fluids. Kind of data set: Cell counts of inflammatory cells in bronchoalveolar lavage fluids of model mice with tobacco smoke-induced pulmonary emphysema. The class given is in vivo, C57black/6 female mice. The settings on record: after six months' exposure, 25, 50 or 100 mg/kg orally twice daily. As for the experimental part:
as §2, with “The cell counts of inflammatory cells (macrophages and neutrophiles) in” for “It has been reported that as pulmonary emphysema progresses, pulmonary functions deteriorate. It has also been known that”, “bronchoalveolar lavage fluids after six months' exposure were measured to provide” for “pulmonary compliance, which is”, “of” for “of pulmonary functions, increases in model mice with tobacco smoke-induced pulmonary emphysema. Thus,”, “inflammatory condition” for “pulmonary compliance was measured”, “emphysema. […]” for “emphysema after six months' exposure.”

Structures are written as SMILES.

Consider `CC[C@H]1OC(=O)[C@H](C)[C@@H](O[C@H]2C[C@@](C)(OC)[C@@H](O)[C@H](C)O2)[C@H](C)[C@@H](O[C@@H]2O[C@H](C)C[C@H](N(C)C)[C@H]2O)[C@](C)(OC)C[C@@H](C)C(=O)[C@H](C)[C@@H](O)[C@]1(C)O` [clarithromycin], for which the AUC(0-inf) in data set [1] was determined as 8980 ng·h/mL; in data set [2], 2680 ng·h/mL. Moreover, in data set [3], the pulmonary compliance result is recorded as “the pulmonary compliance recovered”. Also, in data set [4] (FIG. 1A), the “cell count of macrophages in bronchoalveolar lavage fluid” value is “reduced the cell counts of macrophages and neutrophiles in a dose-dependant manner”. The “cell count of neutrophiles in bronchoalveolar lavage fluid” value in data set [4] (FIG. 1B) is “reduced the cell counts of macrophages and neutrophiles in a dose-dependant manner”.

Source of the values: patent US8017588B2, “Clarithromycin or salt thereof for use in the treatment or prevention of pulmonary disease induced by destruction of pulmonary alveoli” (Taisho Pharmaceutical Co., Ltd, priority 2005, dated 2011).
